From ChEMBL document CHEMBL3259529, “Strychnobaillonine, an unsymmetrical bisindole alkaloid with an unprecedented skeleton from Strychnos icaja roots” (J Nat Prod, 2014)
≈ marks a conversion by molar mass, not a printed value.

Assays:
Plasmodium falciparum = experiment: Antiplasmodial activity against chloroquine-sensitive Plasmodium falciparum 3D7 assessed as growth inhibition by lactate dehydrogenase assay; type: functional, organism-based
[1] = Selectivity index, ratio of IC50 for human WI38 cells to IC50 for chloroquine-sensitive Plasmodium falciparum 3D7; type: toxicity, cell-based, WI-38; conditions: read-out: Ratio IC50
WI-38 = experiment: Cytotoxicity against human WI38 cells assessed as cell viability by WST-1 assay; type: cell-based

C[C@@H]1CC[C@H]2[C@@H](C)C(=O)O[C@@H]3O[C@@]4(C)CC[C@@H]1[C@]32OO4 [ARTEMISININ]
IC50 (Plasmodium falciparum): 0.01 µg/mL

C/C=C1/CN2CC[C@]34c5ccccc5N5C(=O)[C@H]6[C@@H](O)[C@H]7[C@@H]8N(c9ccccc9[C@@]89CCN8C/C(=C/C)[C@@H]7C[C@H]89)[C@@H]6[C@H]([C@H]53)[C@H]1C[C@H]24
selectivity ratio [1]: > 14 | IC50 (WI-38): > 10 µg/mL | IC50 (Plasmodium falciparum): 1100 nM | IC90 (Plasmodium falciparum): 2.6 µg/mL (≈ 4.24 µM)

CC[C@@]1(O)C(=O)OCc2c1cc1n(c2=O)Cc2cc3ccccc3nc2-1 [CAMPTOTHECIN]
IC50 (WI-38): 0.03 µg/mL (≈ 0.0861 µM)

C/C=C1/CN2[C@@H](C3=C[C@@H]4[C@@H]5N(C3=O)c3ccccc3[C@@]53CCN5C/C(=C/C)[C@@H]4C[C@H]53)C[C@@]34c5ccccc5N5C6=C7[C@H]8C[C@@H]9N(CC[C@@]9%10c9ccccc9N(C6=C([C@H]1C[C@H]23)[C@H]54)[C@@H]7%10)C/C8=C/C
selectivity ratio [1]: < 10.1 | IC50 (WI-38): < 5 µg/mL | IC50 (Plasmodium falciparum): 600 nM | IC90 (Plasmodium falciparum): 1.6 µg/mL (≈ 1.85 µM)
